Results: US20230287510A1, “COMPOSITIONS, PANELS, AND METHODS FOR CHARACTERIZING CHRONIC LYMPHOCYTIC LEUKEMIA” (The Broad Institute, Inc., priority 2020, published 2023)

Test system: chronic lymphocytic leukemia (CLL) samples classified by expression subtype (Ec-i, EC-m1, EC-m2, EC-m3, EC-m4, EC-o, EC-u1, EC-u2)
Assay: Ex-vivo drug sensitivity (percent viability) of CLL samples compared between expression subtypes (ECs); as to Mean viability in the EC: test concentration or dose not given here; as to Mean viability in the other ECs: test concentration or dose not given here
Format: cell-based
Description: An analysis was completed to determine whether the expression clusters (ECs) can be used to predict the resistance and sensitivity of different chronic lymphocytic leukemias to various drugs. […] The expression subtypes were then used with the drug sensitivity data to compare the percent […] of samples in each expression cluster to the percent viability of samples in all other expression clusters.

Compound | Mean viability in the other ECs (all ECs other than EC-i) | Mean viability in the other ECs (all ECs other than EC-m3) | Mean viability in the other ECs (all ECs other than EC-m4) | Mean viability in the other ECs (all ECs other than EC-u1) | Mean viability in the other ECs (all ECs other than EC-u2) | Drug response associated with the EC (expression cluster EC-i) | Mean viability in the EC (expression cluster EC-i) | Drug response associated with the EC (expression cluster EC-m3) | Mean viability in the EC (expression cluster EC-m3) | Drug response associated with the EC (expression cluster EC-m4) | Mean viability in the EC (expression cluster EC-m4) | Drug response associated with the EC (expression cluster EC-u1) | Mean viability in the EC (expression cluster EC-u1) | Drug response associated with the EC (expression cluster EC-u2) | Mean viability in the EC (expression cluster EC-u2) | Mean viability in the other ECs (all ECs other than EC-m1) | Drug response associated with the EC (expression cluster EC-m1) | Mean viability in the EC (expression cluster EC-m1)
Cn1cnc2c(F)c(Nc3ccc(Br)cc3Cl)c(C(=O)NOCCO)cc21 [selumetinib] | 0.92 | 0.93 | 0.92 | 0.94 | 0.94 | Resistant | 0.97 | Resistant | 0.97 | Resistant | 0.97 | Sensitive | 0.91 | Sensitive | 0.79 |  |  | 
C=CC(=O)Nc1cccc(Nc2nc(Nc3ccc(OCCOC)cc3)ncc2F)c1 [spebrutinib] |  |  | 0.95 | 0.98 | 0.96 |  |  |  |  |  | 1.01 |  | 0.92 |  | 0.88 |  |  | 
COc1cc(Nc2ncc(F)c(Nc3ccc4c(n3)NC(=O)C(C)(C)O4)n2)cc(OC)c1OC [tamatinib] | 1.03 | 1.04 | 1.03 | 1.06 |  | Resistant | 1.07 | Resistant | 1.09 | Resistant | 1.09 | Sensitive | 1.00 |  |  |  |  | 
C/C=C(/C)C(=O)O[C@H]1C(C)=C2[C@H]([C@@H]1OC(=O)CCCCCCC)[C@@](C)(OC(C)=O)C[C@H](OC(=O)CCC)[C@@]1(O)[C@H]2OC(=O)[C@@]1(C)O [thapsigargin] |  |  |  |  |  | Sensitive |  |  |  |  |  |  |  | Resistant |  |  |  | 
CC1(C)CCC(CN2CCN(c3ccc(C(=O)NS(=O)(=O)c4ccc(NCC5CCOCC5)c([N+](=O)[O-])c4)c(Oc4cnc5[nH]ccc5c4)c3)CC2)=C(c2ccc(Cl)cc2)C1 [venetoclax] |  |  |  | 0.45 |  |  |  |  |  |  |  | Resistant | 0.54 |  |  |  |  | 
O=C(CCCCCCC(=O)Nc1ccccc1)NO [vorinostat] |  |  |  |  |  |  |  | Sensitive |  |  |  |  |  |  |  |  |  | 
dasatinib |  | 0.72 | 0.70 | 0.79 | 0.75 |  |  | Resistant | 0.87 | Resistant | 0.89 | Sensitive | 0.64 | Sensitive | 0.46 | 0.73 | Resistant | 0.90
fludarabine |  | 0.93 |  |  |  |  |  | Sensitive | 0.82 |  |  |  |  |  |  |  |  | 
